Key:
Type in all cases: in vivo
Settings in all cases: applied at 1000 g/h, evaluated after 13 days
Setaria faberi (SETFA) [1] = test: Herbicidal glasshouse test, pre-emergence, SETFA
Setaria faberi (SETFA) [2] = test: Herbicidal glasshouse test, post-emergence, SETFA
Procedure, shortened: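 This post-emergence glasshouse herbicide test used potted Setaria faberi. Plants were cultivated for 8 days under controlled conditions (24/16° C. day/night, 14 hours light, 65% humidity) and then treated with an aqueous spray made from an acetone/water (50:50) solution containing 0.5% Tween 20. After 13 days of further growth with twice-daily watering, damage was rated on a five point scale (5=80-100%; 1=0-19%).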

[3] = tested on: Ipomoea hederacea (IPOHE); test: Herbicidal glasshouse test, pre-emergence, IPOHE
[4] = tested on: Echinochloa crus-galli (ECHCG); test: Herbicidal glasshouse test, pre-emergence, ECHCG
Procedure, shortened: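 In this pre-emergence glasshouse test, ECHCG seeds sown in pots of standard soil were sprayed one day after sowing with the test material in acetone/water (50:50) containing 0.5% Tween 20. Plants were kept at 24/16° C., 14 hours light, 65% humidity, and watered twice daily. Percentage damage was rated after 13 days on a 1–5 scale.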

[5] = tested on: Amaranthus retoflexus (AMARE); test: Herbicidal glasshouse test, post-emergence, AMARE
Procedure, shortened: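 This post-emergence glasshouse test used AMARE plants raised in standard soil for 8 days under controlled conditions (24/16° C. day/night, 14 hours light, 65% humidity). Foliage was sprayed with formulated compound in acetone/water (50:50) containing 0.5% Tween 20. Plants were then watered twice daily, and after 13 days percentage damage was rated on a five point scale.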

[6] = tested on: Echinochloa crus-galli (ECHCG); test: Herbicidal glasshouse test, post-emergence, ECHCG
Procedure, shortened: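 In this post-emergence glasshouse test, barnyard grass (ECHCG) was cultivated for 8 days under controlled conditions (24/16° C. day/night, 14 hours light, 65% humidity). It was then sprayed with an aqueous solution of the technical compound in acetone / water (50:50) with 0.5% Tween 20. Plants were kept under the same conditions and watered twice daily. After 13 days, percentage damage was rated on a five point scale (5=80-100%; 1=0-19%).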

[7] = tested on: Alopecurus myosuroides (ALOMY); test: Herbicidal glasshouse test, pre-emergence, ALOMY
Solanum nigrum (SOLNI) [8] = test: Herbicidal glasshouse test, pre-emergence, SOLNI
Procedure, shortened: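 This pre-emergence glasshouse herbicide test used Solanum nigrum sown in standard soil. One day after sowing, pots were sprayed with the compound in acetone/water (50:50) with 0.5% Tween 20. They were then grown at 24/16° C., with 14 hours light and 65% humidity, and watered twice daily. Percentage damage was scored after 13 days on a five point scale, where 5=80-100% and 1=0-19%.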

[9] = tested on: Alopecurus myosuroides (ALOMY); test: Herbicidal glasshouse test, post-emergence, ALOMY
[10] = tested on: Ipomoea hederacea (IPOHE); test: Herbicidal glasshouse test, post-emergence, IPOHE
Solanum nigrum (SOLNI) [11] = test: Herbicidal glasshouse test, post-emergence, SOLNI
[12] = tested on: Amaranthus retoflexus (AMARE); test: Herbicidal glasshouse test, pre-emergence, AMARE
Procedure, shortened: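 This pre-emergence glasshouse herbicide test used Amaranthus retoflexus sown in standard soil. After one day of cultivation, an aqueous spray made from the technical ingredient in 50:50 acetone/water with 0.5% Tween 20 was applied. Pots stayed at 24/16° C., 14 hours light, 65% humidity, with twice-daily watering. Damage was rated on a five point scale (1=0-19% up to 5=80-100%).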

Row | SMILES | PRE Application SETFA, percentage damage (five point scale) (Setaria faberi (SETFA) [1]) | POST Application SETFA, percentage damage (five point scale) (Setaria faberi (SETFA) [2]) | PRE Application IPOHE, percentage damage (five point scale) [3] | PRE Application ECHCG, percentage damage (five point scale) [4] | POST Application AMARE, percentage damage (five point scale) [5] | POST Application ECHCG, percentage damage (five point scale) [6] | PRE Application ALOMY, percentage damage (five point scale) [7] | PRE Application SOLNI, percentage damage (five point scale) (Solanum nigrum (SOLNI) [8]) | POST Application ALOMY, percentage damage (five point scale) [9] | POST Application IPOHE, percentage damage (five point scale) [10] | POST Application SOLNI, percentage damage (five point scale) (Solanum nigrum (SOLNI) [11]) | PRE Application AMARE, percentage damage (five point scale) [12]
1 | Cn1nnnc1NC(=O)c1nn(C)c(=O)n(CC2CCCCC2)c1=O [Compound 1.096] | 4 (4=60-79%) | 5 (5=80-100%) | 5 (5=80-100%) | 5 (5=80-100%) | 5 (5=80-100%) | 5 (5=80-100%) | 5 (5=80-100%) | 5 (5=80-100%) | 4 (4=60-79%) | 5 (5=80-100%) | 5 (5=80-100%) | 5 (5=80-100%)
2 | Cn1ncnc1OC(=O)c1cn(C)c(=O)n(-c2cccc(F)c2)c1=O [Compound 2.001] | 1 (1=0-19%) | 1 (1=0-19%) | 1 (1=0-19%) | 1 (1=0-19%) | 4 (4=60-79%) | 1 (1=0-19%) | 1 (1=0-19%) | 1 (1=0-19%) | 1 (1=0-19%) | 1 (1=0-19%) | 4 (4=60-79%) | 1 (1=0-19%)
3 | Cn1ncnc1NC(=O)c1cn(C)c(=O)n(-c2ccccc2)c1=O [Compound 2.003] | 3 (3=40-59%) | 1 (1=0-19%) | 5 (5=80-100%) | 1 (1=0-19%) | 1 (1=0-19%) | 1 (1=0-19%) | 1 (1=0-19%) | 4 (4=60-79%) | 1 (1=0-19%) | 2 (2=20-39%) | 2 (2=20-39%) | 2 (2=20-39%)
4 | CCn1nnnc1NC(=O)c1cn(C)c(=O)n(-c2cccc(F)c2)c1=O [Compound 4.003] | 1 (1=0-19%) | 1 (1=0-19%) | 3 (3=40-59%) | 1 (1=0-19%) | 5 (5=80-100%) | 1 (1=0-19%) | 2 (2=20-39%) | 4 (4=60-79%) | 2 (2=20-39%) | 2 (2=20-39%) | 5 (5=80-100%) | 5 (5=80-100%)
5 | CCCCn1c(=O)c(C(=O)Nc2nnnn2C)cn(C)c1=O [Compound 4.004] | 1 (1=0-19%) | 1 (1=0-19%) | 2 (2=20-39%) | 1 (1=0-19%) | 5 (5=80-100%) | 1 (1=0-19%) | 1 (1=0-19%) | 2 (2=20-39%) | 1 (1=0-19%) | 4 (4=60-79%) | 5 (5=80-100%) | 5 (5=80-100%)
6 | CCCn1nnnc1NC(=O)c1cn(C)c(=O)n(-c2cccc(F)c2)c1=O [Compound 4.005] | 1 (1=0-19%) | 1 (1=0-19%) | 4 (4=60-79%) | 2 (2=20-39%) | 5 (5=80-100%) | 2 (2=20-39%) | 1 (1=0-19%) | 5 (5=80-100%) | 3 (3=40-59%) | 5 (5=80-100%) | 5 (5=80-100%) | 4 (4=60-79%)
7 | Cn1ncnc1NC(=O)c1nn(C)c(=O)n(-c2ccccc2)c1=O [Compound 5.001] | 1 (1=0-19%) | 5 (5=80-100%) | 4 (4=60-79%) | 1 (1=0-19%) | 5 (5=80-100%) | 5 (5=80-100%) | 1 (1=0-19%) | 5 (5=80-100%) | 5 (5=80-100%) | 5 (5=80-100%) | 5 (5=80-100%) | 5 (5=80-100%)
8 | Cn1ncnc1NC(=O)c1nn(C)c(=O)n(-c2cccc(F)c2F)c1=O [Compound 5.002] | 2 (2=20-39%) | 5 (5=80-100%) | 5 (5=80-100%) | 3 (3=40-59%) | 5 (5=80-100%) | 5 (5=80-100%) | 3 (3=40-59%) | 5 (5=80-100%) | 5 (5=80-100%) | 5 (5=80-100%) | 5 (5=80-100%) | 5 (5=80-100%)

— US20160009693A1, “HERBICIDAL COMPOUNDS” (SYNGENTA LIMITED, priority 2013, published 2016)
